Source: patent US10407467B2, “Polymyxin derivatives and their use in combination therapy together with different antibiotics” (priority 2013, dated 2019)
Numbered stars: 1 amine (or outer) side, 2 acyl side, 3 side chain; on linkers, the order of the positions; unused ones are H or OH. Bridge positions count the residues as written; N and C are the ends. Square brackets hold non-standard residues; d marks the D form. Peptide text beside a SMILES is read from it. Achc(trans-4) = O=C([C@H]1CC[C@H](N[*:1])CC1)[*:2]; Dab = NCC[C@H](N)C(=O)O

Tests used:
Type in all cases: cell-based
Acinetobacter baumannii [1] = test: MIC, sole activity (no second agent); details: Second Agent none (Table 7B, by row order)
Summary of the method: (§1)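 First, isolated colonies grown 18-24 hours on Mueller-Hinton agar were suspended to 0.5 McFarland; next, up to four strains per pathogen were tested in duplicate in cation-adjusted MHB; finally, the lower concordant value or modal repeat value was reported against Polymyxin B.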

Escherichia coli [2] = test: MIC, sole activity (no second agent)
Summary of the method: as §1

Klebsiella pneumoniae [3] = test: MIC, sole activity (no second agent)
Summary of the method: as §1

Pseudomonas aeruginosa [4] = test: MIC, sole activity (no second agent)
Summary of the method: as §1

Acinetobacter baumannii [5] = test: MIC, compound in combination with a second agent (broth microdilution)
Summary of the method: (§2)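 MIC = combined concentration of test compound plus partner agent, mixed at equal mass (1:1 w/w, salt form as used). Up to four strains per species; colonies adjusted to 0.5 McFarland. Run in duplicate; >2-fold disagreement invalidates the run.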

Escherichia coli [6] = test: as above
Summary of the method: as §2

Klebsiella pneumoniae [7] = test: as above
Summary of the method: as §2

Pseudomonas aeruginosa [8] = test: as above
Summary of the method: as §2

[9] = Second Agent none (Table 7B, by row order)
[10] = 1:1 combination with Ciprofloxacin (by row order), total drug concentration
[11] = 1:1 combination with Ciprofloxacin, total drug concentration
[12] = 1:1 combination with Tigecycline, total drug concentration
[13] = 1:1 combination with Vancomycin, total drug concentration

CC(C)C[C@@H]1NC(=O)[C@@H](Cc2ccccc2)NC(=O)[C@H](CCN)NC(=O)[C@@H](NC(=O)[C@H](CCN)NC(=O)[C@@H](NC(=O)[C@H]2CC[C@H](N)CC2)[C@@H](C)O)CCNC(=O)[C@H]([C@@H](C)O)NC(=O)[C@H](CCN)NC(=O)[C@H](CCN)NC1=O [Example 17, Trans-4-aminocyclohexane-carbonyl polymyxin B nonapeptide] (H-[Achc(trans-4)]T[Dab][Dab][Dab][dF]L[Dab][Dab]T; lactam 4-C)
>32 micrograms/mL: MIC K. pneumoniae CCUG 59348 (Klebsiella pneumoniae [3]; K. pneumoniae CCUG 59348, second agent none) | MIC K. pneumoniae NCTC 13442 (Klebsiella pneumoniae [3]; K. pneumoniae NCTC 13442, second agent none) | MIC K. pneumoniae CCUG 59348 (Klebsiella pneumoniae [3]; Second Agent none (Table 7B)) | MIC K. pneumoniae NCTC 13442 (Klebsiella pneumoniae [3]; Second Agent none (Table 7B)) | MIC K. pneumoniae CCUG 59348 (Klebsiella pneumoniae [3]; Second Agent none (Table 7C)) | MIC K. pneumoniae NCTC 13442 (Klebsiella pneumoniae [3]; Second Agent none (Table 7C)) | MIC K. pneumoniae CCUG-59348 (Klebsiella pneumoniae [3]; in the absence of Rifampicin, strain CCUG-59348) | MIC K. pneumoniae CCUG 59348 (Klebsiella pneumoniae [7]; [11]) | MIC K. pneumoniae CCUG 59348 (Klebsiella pneumoniae [7]; [12]) | MIC K. pneumoniae CCUG 59348 (Klebsiella pneumoniae [7]; K. pneumoniae CCUG 59348, 1:1 combination with Meropenem, total drug concentration)
≤0.06 micrograms/mL: MIC A. baumannii NCTC 13423 (Acinetobacter baumannii [5]; 1:1 (wt:wt) combination with Rifampicin, MIC = total drug concentration, strain NCTC 13423) | MIC E. coli ATCC25922 (Escherichia coli [6]; 1:1 (wt:wt) combination with Rifampicin, MIC = total drug concentration, strain ATCC25922) | MIC E. coli ATCC25922 (Escherichia coli [6]; [11]) | MIC E. coli NCTC9001 (Escherichia coli [6]; [11]) | MIC K. pneumoniae ATCC 4352 (Klebsiella pneumoniae [7]; [10]) | MIC P. aeruginosa ATCC 27853 (Pseudomonas aeruginosa [8]; [10])
16 micrograms/mL: MIC E. coli NCTC9001 (Escherichia coli [2]; Second Agent none (Table 7B)) | MIC E. coli NCTC9001 (Escherichia coli [2]; in the absence of Rifampicin, strain NCTC9001) | MIC E. coli NCTC9001 (Escherichia coli [6]; [12]) | MIC K. pneumoniae NCTC 13442 (Klebsiella pneumoniae [7]; [12]) | MIC K. pneumoniae NCTC 13442 (Klebsiella pneumoniae [7]; K. pneumoniae NCTC 13442, 1:1 combination with Meropenem, total drug concentration)
0.25 microgram/mL: MIC K. pneumoniae CCUG 59626 (Klebsiella pneumoniae [3]; Second Agent none (Table 7A)) | MIC K. pneumoniae CCUG 59626 (Klebsiella pneumoniae [7]; [13])
32 micrograms/mL: MIC K. pneumoniae NCTC-13438 (Klebsiella pneumoniae [3]; in the absence of Rifampicin, strain NCTC-13438)
32 microgram/mL: MIC K. pneumoniae NCTC 13442 (Klebsiella pneumoniae [7]; [13])
0.125 micrograms/mL: MIC K. pneumoniae ATCC 4352 (Klebsiella pneumoniae [3]; [9]) | MIC K. pneumoniae ATCC 4352 (Klebsiella pneumoniae [3]; in the absence of Rifampicin, strain ATCC 4352) | MIC P. aeruginosa ATCC 27853 (Pseudomonas aeruginosa [4]; [9]) | MIC P. aeruginosa ATCC 27853 (Pseudomonas aeruginosa [4]; in the absence of Rifampicin, strain ATCC27853) | MIC A. baumannii ATCC BAA-747 (Acinetobacter baumannii [5]; 1:1 (wt:wt) combination with Rifampicin, MIC = total drug concentration, strain ATCC BAA-747) | MIC E. coli NCTC9001 (Escherichia coli [6]; 1:1 (wt:wt) combination with Rifampicin, MIC = total drug concentration, strain NCTC9001) | MIC K. pneumoniae ATCC 4352 (Klebsiella pneumoniae [7]; 1:1 (wt:wt) combination with Rifampicin, MIC = total drug concentration, strain ATCC 4352) | MIC K. pneumoniae ATCC-BAA-2146 (Klebsiella pneumoniae [7]; 1:1 (wt:wt) combination with Rifampicin, MIC = total drug concentration, strain ATCC-BAA-2146) | MIC P. aeruginosa ATCC 27853 (Pseudomonas aeruginosa [8]; 1:1 (wt:wt) combination with Rifampicin, MIC = total drug concentration, strain ATCC 27853) | MIC P. aeruginosa ATCC CRM-9027 (Pseudomonas aeruginosa [8]; 1:1 (wt:wt) combination with Rifampicin, MIC = total drug concentration, strain ATCC CRM-9027) | MIC P. aeruginosa ATCC-47 (Pseudomonas aeruginosa [8]; 1:1 (wt:wt) combination with Rifampicin, MIC = total drug concentration, strain ATCC-47) | MIC P. aeruginosa CCUG 59626 (Pseudomonas aeruginosa [8]; 1:1 (wt:wt) combination with Rifampicin, MIC = total drug concentration, strain CCUG 59626)
1 micrograms/mL: MIC K. pneumoniae NCTC 13442 (Klebsiella pneumoniae [7]; [11])
0.5 micrograms/mL: MIC A. baumannii NCTC 13424 (Acinetobacter baumannii [5]; [10]) | MIC E. coli CCUG 59342 (Escherichia coli [6]; [11]) | MIC P. aeruginosa CCUG 59626 (Pseudomonas aeruginosa [8]; [10]) | MIC P. aeruginosa CCUG 59626 (Pseudomonas aeruginosa [8]; P. aeruginosa CCUG 59626, 1:1 combination with Meropenem, total drug concentration)
4 micrograms/mL: MIC A. baumannii NCTC 13424 (Acinetobacter baumannii [1]) | MIC K. pneumoniae ATCC BAA-1706 (Klebsiella pneumoniae [7]; K. pneumoniae ATCC BAA-1706, 1:1 combination with Meropenem, total drug concentration)
0.25 micrograms/mL: MIC E. coli CCUG 59342 (Escherichia coli [2]; Second Agent none (Table 7B)) | MIC P. aeruginosa CCUG 59626 (Pseudomonas aeruginosa [4]; P. aeruginosa CCUG 59626, second agent none) | MIC P. aeruginosa CCUG 59626 (Pseudomonas aeruginosa [4]; [9]) | MIC P. aeruginosa CCUG 59626 (Pseudomonas aeruginosa [4]; Second Agent none (Table 7C)) | MIC P. aeruginosa CCUG 59626 (Pseudomonas aeruginosa [4]; in the absence of Rifampicin, strain CCUG 59626) | MIC E. coli NCTC9001 (Escherichia coli [6]; E. coli NCTC9001, 1:1 combination with Meropenem, total drug concentration) | MIC K. pneumoniae NCTC 13438 (Klebsiella pneumoniae [7]; 1:1 (wt:wt) combination with Rifampicin, MIC = total drug concentration, strain NCTC 13438) | MIC P. aeruginosa CCUG 59626 (Pseudomonas aeruginosa [8]; [12])
>32 microgram/mL: MIC K. pneumoniae CCUG 59348 (Klebsiella pneumoniae [3]; Second Agent none (Table 7A)) | MIC K. pneumoniae NCTC 13442 (Klebsiella pneumoniae [3]; Second Agent none (Table 7A)) | MIC K. pneumoniae CCUG 59348 (Klebsiella pneumoniae [7]; [13])
16 microgram/mL: MIC E. coli NCTC9001 (Escherichia coli [6]; [13])
<0.06 micrograms/mL: MIC A. baumannii CCUG57249 (Acinetobacter baumannii [5]; 1:1 (wt:wt) combination with Rifampicin, MIC = total drug concentration, strain CCUG57249) | MIC A. baumannii NCTC 13424 (Acinetobacter baumannii [5]; 1:1 (wt:wt) combination with Rifampicin, MIC = total drug concentration, strain NCTC 13424)
8 micrograms/mL: MIC K. pneumoniae ATCC-BAA2146 (Klebsiella pneumoniae [3]; in the absence of Rifampicin, strain ATCC-BAA2146)
2 micrograms/mL: MIC E. coli ATCC25922 (Escherichia coli [2]; in the absence of Rifampicin, strain ATCC25922) | MIC K. pneumoniae CCUG-59348 (Klebsiella pneumoniae [7]; 1:1 (wt:wt) combination with Rifampicin, MIC = total drug concentration, strain CCUG-59348)
